{"source": "patent US20060205761A1", "about": "“Ccr-2 antagonists for treatment of neuropathic pain” (priority 2003, published 2006)", "key": {"[1]": {"test_system": "formalin-induced pain behavior", "assay": "Mouse formalin test", "format": "in vivo", "conditions": "for decrease of pain behavior in the formalin test: 60 min before formalin", "experimental": "Formalin Test: For 4 days prior to testing, mice were acclimated for 2 hours every day on the test platform. On the day of study, mice were placed for 1 hour on the test platform, and subsequently were administered 10 μl of 2% formalin in the plantar surface of the left paw. The time mice spent either licking or lifting the injected paw was recorded over 2-minute periods at 5-minute intervals for 50 minutes. […] Phase 1 (0-10 min post-injection) is considered to reflect acute pain, whereas phase 2 (10-50 min post-injection) reflects chronic, inflammatory pain. The formalin test: a quantitative study of the analgesic effects of morphine, meperidine, and brain stem stimulation in rats and cats. Pain. December 1977;4(2):161-74) Intragastrical administration by gavage: Compound and vehicle were given via a 18 G Gavage needle at 0.2 ml/30 g of the mouse body weight. Compounds: A CCR-2 antagonist having the formula: [drawing 1085] (CCR-2 Antagonist “A”) was tested in the formalin test and the mouse nerve injury model. A second CCR-2 antagonist: [drawing 1086] (CCR-2 Antagonist “B”) was tested in the formalin test only. Both compounds were diluted in 0.5% methylcellulose and were dosed p.o. at a volume of 0.2 ml per 30 g body-weight. For the formalin test, compounds were administered 60 min before the formalin injection. For the nerve injury model, Compound A was tested 4-5 days after surgery. A third CCR-2 antagonist having the formula: [drawing 1087] (CCR-2 Antagonist “C”) was tested in the rat nerve model, MCP-1 co-administration model, the carrageenan model and the CFA model. The compound was dissolved into ethanol/H2O=9/95 prior to testing."}, "[2]": {"test_system": "CFA-induced weight bearing deficit", "assay": "Rat Complete Freund's Adjuvant (CFA) model, weight bearing", "format": "in vivo, Sprague-Dawley rat", "experimental": "Complete Freund's Adjuvant (CFA): Male Sprague-Dawley rats (Charles River) were injected with CFA (150 μl) intraplantar into their left paw. This study included 3 groups: (1) CCR-2 Antagonist C at 3 mg/kg bid started 2 hours before CFA injection, (2) vehicle group and (3) CCR-2 Antagonist C at 10 mg/kg given on day 3 post-CFA (rats received vehicle on day 0-2)(n=6 per group). Rats were dosed for 3.5 days bid. Before the morning dose and two hours after it, weight bearing and paw size were measured. On the final day of the study (day 3 post-CFA) in addition to weight bearing, paw pressure threshold was also evaluated at 2 hr post dose."}, "[3]": {"test_system": "mechanical allodynia after spinal nerve ligation", "assay": "L5-L6 spinal nerve ligation (Chung) model, 50% paw withdrawal threshold / % MPE", "format": "in vivo, Sprague-Dawley rat", "conditions": "rat", "experimental": "Intragastrical administration by gavage: Compound and vehicle were given via a 15 G Gavage needle at 1 ml/100 g of the rat body weight. L5-L6 Spinal Nerve Ligation (Chung): Male Sprague-Dawley rats (Taconic) were anesthetized with 2% gaseous isofluorane (For induction 3-5% and O2 […], for maintenance 2-3% and O2 […]). Following dorsal skin incision and muscle separation, the posterior interarticular traverse process of L/S1 was exposed and carefully removed with a mircro Rongeur. The L5 and L6 spinal nerves were tightly ligated by a square knot with 6-0 silk thread. The muscles were closed with 4-0 absorbable sutures and the skin was closed with wound clips. […] Animals were pre-tested and non-sensitive rats (50% paw withdrawal threshold above 3 g) were also excluded from compound testing. The results were expressed either as 50% paw withdrawal threshold, or in % maximal possible effect (MPE). MPE was calculated as follows: [formula] Pre-operation cut-off value is 15 grams. CCR-2 Antagonist C was evaluated in a multiple dosing study for 5 days. […] 50% paw withdrawal threshold following multiple dosing (3 mg/kg, PO, b.i.d.) of CCR-2 Antagonist C. Five days post spinal nerve ligation, the animals were tested before and 1 hr after dosing at 7 a.m. each day for 5 days. Data=Mean±SEM, n=10 rats. Efficacy: % MPE. […]"}, "[4]": {"test_system": "mechanical allodynia induced by MCP-1", "assay": "Intrathecal MCP-1 injection and co-injection with CCR-2 antagonist, 50% paw withdrawal threshold", "format": "in vivo", "conditions": "rat", "experimental": "Intrathecal administration by intrathecal catheter: Using Hamilton syringe to inject each rat: 5 μl compound or vehicle, 1 μl air and 9 μl vehicle. Intrathecal catheterization. After shaving the back of the head and neck, the rats were placed in a stereotaxic headholder with the head flexed forward. A 8-cm saline filled polyethylene tube (PE5) was placed into the subarachnoid space through a small puncture and threaded caudally so that the caudal tip rested on the rostral edge of the lumbar enlargement. The rats were allowed to recover for a minimum of 2-3 days prior to further study. […] Animals with impaired motor function (e.g. hind limb paralysis) were euthanized. Compounds: A CCR-2 antagonist having the formula: [drawing 1085] (CCR-2 Antagonist “A”) was tested in the formalin test and the mouse nerve injury model. A second CCR-2 antagonist: [drawing 1086] (CCR-2 Antagonist “B”) was tested in the formalin test only. Both compounds were diluted in 0.5% methylcellulose and were dosed p.o. at a volume of 0.2 ml per 30 g body-weight. For the formalin test, compounds were administered 60 min before the formalin injection. For the nerve injury model, Compound A was tested 4-5 days after surgery. A third CCR-2 antagonist having the formula: [drawing 1087] […] At Day 0, 1, 3, 4, 7, 10, 11, 15, 18 and 21 post dosing, 50% paw withdrawal threshold was determined."}}, "data": [{"smiles": "CC(C)[C@]1(C(=O)N2CCc3ccc(C(F)(F)F)cc3C2)CCC(N[C@H]2CCOC[C@H]2C)C1", "note": "(some centres unmarked) [CCR-2 Antagonist A]", "values": [{"measurement": "effect in the formalin test versus vehicle", "setting": "[1]; 1 mg/kg p.o.", "result": "No difference with the vehicle group"}, {"measurement": "decrease of pain behavior in the formalin test", "setting": "[1]; 3 mg/kg p.o.", "result": 50, "unit": "%"}, {"measurement": "effect on phase 2 times of the formalin test", "setting": "[1]; 3 mg/kg p.o.", "result": "significantly decreased"}, {"measurement": "effect on phase 2 times of the formalin test", "setting": "[1]; 30 mg/kg p.o.", "result": "significantly decreased"}, {"measurement": "effect on phase 1 of the formalin test", "setting": "[1]; p.o., phase 1", "result": "no effect"}]}, {"smiles": "CC(C)[C@]1(C(=O)N2CCc3ncc(C(F)(F)F)cc3C2)CC[C@@H](NC2CCOC[C@H]2C)C1", "note": "(some centres unmarked) [CCR-2 Antagonist C]", "values": [{"measurement": "effect on weight bearing", "setting": "[2]; 3 mg/kg bid, day 2 and 3", "result": "significantly reversed weight bearing"}, {"measurement": "effect on weight bearing on the affected limb", "setting": "[2]; 10 mg/kg, day 3", "result": "significantly reversed weight bearing"}, {"measurement": "efficacy in multiple dosing study (50% paw withdrawal threshold)", "setting": "[3]; 3 mg/kg PO b.i.d. for 5 days", "result": "significant efficacy"}, {"measurement": "Efficacy: % MPE, day from which efficacy is significant", "setting": "[3]; 3 mg/kg PO b.i.d., tested before and 1 hr after dosing each day for 5 days", "result": "Significant efficacy was observed starting at day 3"}, {"measurement": "anti-allodynic effect (50% paw withdrawal threshold) of co-injection with MCP-1", "setting": "[4]; 20 μg/rat via intrathecal catheter with MCP-1 750 ng/rat, day 4, 7, 10 and 11", "result": "partial preemptive anti-allodynic effect"}, {"measurement": "effect of co-injection with MCP-1 on development of mechanical allodynia", "setting": "[4]; intrathecal co-injection with MCP-1", "result": "inhibited and delayed the development of mechanical allodynia"}]}, {"smiles": "CO[C@H]1COCC[C@H]1NC1CC[C@@](C(=O)N2CCc3ncc(C(F)(F)F)cc3C2)(C(C)C)C1", "note": "(some centres unmarked) [CCR-2 Antagonist B]", "values": [{"measurement": "decrease of phase 2 of the formalin test", "setting": "[1]; 10 mg/kg", "result": 20, "unit": "%"}, {"measurement": "decrease of pain behavior in the formalin test", "setting": "[1]; 30 mg/kg p.o.", "result": 30, "unit": "%"}, {"measurement": "decrease of phase 2 of the formalin test", "setting": "[1]; 30 mg/kg", "result": 30, "unit": "%"}]}]}
